Columns and labels:
CEM-SS [1] = assay: Compound was tested for the prevention of cytopathic effect of HIV-1 RF in CEM-SS cells; format: functional, cell-based; conditions: Homo sapiens
CEM-SS [2] = assay: Compound was tested for cytotoxicity in uninfected CEM-SS cells; format: functional; conditions: Homo sapiens
MT4 [3] = assay: Compound was tested for the inhibition of cytopathic effect of HIV-1 N119 in MT-4 cells; format: functional, Homo sapiens
MT4 [4] = assay: Compound was tested for the inhibition of cytopathic effect of HIV-1 6S in MT-4 cells; format: functional, Homo sapiens

Row | SMILES | EC50 (CEM-SS [1]) [µM] | CC50 (CEM-SS [2]) [µM] | Activity (MT4 [3]) [µM] | Activity (MT4 [4]) [µM]
1 | COC(=O)CCCC=C(c1cc(Cl)c(OC)c(C(=O)OC)c1)c1cc(Cl)c(OC)c(C(=O)OC)c1 | 0.013 | 31.6 | – | –
2 | CCCCCC=C(c1cc(Br)c(OC)c(C(=O)OC)c1)c1cc(Br)c(OC)c(C(=O)OC)c1 | – | – | 151 | 0.56
